Test results reported in the supplement of paper PMC10307832.

Assays:
Assay in all cases: relative viability (nuclei count vs DMSO), 5 days (fraction); higher = more cells survive
RU-SKI 43 + Lapatinib = compound: CC[C@@H](C)CNCC(=O)N1CCC2=C([C@@H]1COC3=CC=CC(=C3)C)C=CS2 [RU-SKI 43] + CS(=O)(=O)CCNCc1ccc(-c2ccc3ncnc(Nc4ccc(OCc5cccc(F)c5)c(Cl)c4)c3c2)o1 [Lapatinib] (partner 2 µM)
In short: (§1)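 Lung cancer cell lines in 1536-well plates got either a single drug or a fixed anchor-drug dose together with five library-drug doses (not always all listed) in √10 steps, by pin tool, on the day after seeding. Nuclei were counted after 5 days, and relative viability is the treated-to-vehicle ratio of nuclei counts. Values are medians of duplicate plates.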

Irinotecan + Linsitinib = compound: CCc1c2c(nc3ccc(OC(=O)N4CCC(N5CCCCC5)CC4)cc13)-c1cc3c(c(=O)n1C2)COC(=O)[C@]3(O)CC [Irinotecan] + C[C@]1(O)C[C@@H](c2nc(-c3ccc4ccc(-c5ccccc5)nc4c3)c3c(N)nccn32)C1 [Linsitinib] (partner 1 µM)
In short: as §1

Irinotecan + Bortezomib = compound: CCc1c2c(nc3ccc(OC(=O)N4CCC(N5CCCCC5)CC4)cc13)-c1cc3c(c(=O)n1C2)COC(=O)[C@]3(O)CC [Irinotecan] + CC(C)C[C@H](NC(=O)[C@H](Cc1ccccc1)NC(=O)c1cnccn1)B(O)O [Bortezomib] (partner 0.002 µM)
In short: as §1

RU-SKI 43 + Navitoclax = compound: CC[C@@H](C)CNCC(=O)N1CCC2=C([C@@H]1COC3=CC=CC(=C3)C)C=CS2 [RU-SKI 43] + CC1(C)CCC(c2ccc(Cl)cc2)=C(CN2CCN(c3ccc(C(=O)NS(=O)(=O)c4ccc(N[C@H](CCN5CCOCC5)CSc5ccccc5)c(S(=O)(=O)C(F)(F)F)c4)cc3)CC2)C1 [Navitoclax] (partner 0.5 µM)
In short: as §1

Row | Cell Line | relative viability (RU-SKI 43 + Lapatinib; first compound 0.1 µM) | relative viability (RU-SKI 43 + Lapatinib; first compound 0.3162 µM) | relative viability (RU-SKI 43 + Lapatinib; first compound 1 µM) | relative viability (RU-SKI 43 + Lapatinib; first compound 3.162 µM) | relative viability (RU-SKI 43 + Lapatinib; first compound 10 µM) | relative viability (Irinotecan + Linsitinib; first compound 0.6325 µM) | relative viability (Irinotecan + Linsitinib; first compound 2 µM) | relative viability (Irinotecan + Linsitinib; first compound 6.325 µM) | relative viability (Irinotecan + Linsitinib; first compound 20 µM) | relative viability (Irinotecan + Bortezomib; first compound 0.6325 µM) | relative viability (Irinotecan + Bortezomib; first compound 2 µM) | relative viability (Irinotecan + Bortezomib; first compound 6.325 µM) | relative viability (Irinotecan + Bortezomib; first compound 20 µM) | relative viability (RU-SKI 43 + Navitoclax; first compound 0.1 µM) | relative viability (RU-SKI 43 + Navitoclax; first compound 0.3162 µM) | relative viability (RU-SKI 43 + Navitoclax; first compound 1 µM) | relative viability (RU-SKI 43 + Navitoclax; first compound 3.162 µM) | relative viability (RU-SKI 43 + Navitoclax; first compound 10 µM)
1 | NCI-H1299 | 0.965 | 1.03 | 1.05 | 0.941 | 0.95 | 0.721 | 0.865 | 0.463 | 0.266 | 0.932 | 0.824 | 0.487 | 0.415 | 1.04 | 1.09 | 1.07 | 1.01 | 1.03
2 | NCI-H1650 | 0.696 | 0.81 | 0.885 | 0.858 | 0.637 |  |  |  |  | 0.188 | 0.198 | 0.244 | 0.133 | 1.17 | 1.38 | 1.41 | 1.06 | 0.813
3 | NCI-H647 | 1.24 | 1.22 | 1.16 | 1.25 | 1.26 | 1.03 | 0.329 | 0.178 | 0.15 | 0.76 | 0.462 | 0.227 | 0.103 | 1.12 | 1.29 | 1.26 | 1.23 | 1.15
4 | NCI-H1944 | 0.825 | 0.793 | 0.864 | 0.86 | 0.817 | 0.819 | 0.38 | 0.241 | 0.249 |  |  |  |  | 1.02 | 1.05 | 1.12 | 1.02 | 0.938
5 | NCI-H23 | 0.834 | 1.22 | 1.37 | 1.12 | 0.916 | 0.607 | 0.339 | 0.248 | 0.281 | 0.941 | 0.664 | 0.291 | 0.306 | 0.615 | 0.9 | 0.99 | 0.998 | 0.687
6 | NCI-H1792 | 0.937 | 1.14 | 1.42 | 0.88 | 0.973 | 0.613 | 0.528 | 0.21 | 0.107 | 0.955 | 1.17 | 0.486 | 0.192 | 0.65 | 0.908 | 0.968 | 0.612 | 0.685
7 | HCC-78 | 0.843 | 0.626 | 1.24 | 0.513 | 0.369 | 0.577 | 0.418 | 0.204 | 0.184 | 0.404 | 0.393 | 0.242 | 0.257 | 0.758 | 0.96 | 1.03 | 0.834 | 0.772
8 | NCI-H358 | 0.483 | 0.545 | 0.495 | 0.53 | 0.448 | 0.681 | 0.671 | 0.36 | 0.251 |  |  |  |  |  |  |  |  | 
9 | NCI-H520 | 0.897 | 0.986 | 0.996 | 0.951 | 0.756 | 0.821 | 0.737 | 0.302 | 0.212 | 0.446 | 0.477 | 0.252 | 0.138 | 1.08 | 1.42 | 1.28 | 1.08 | 1.03
10 | BEN | 0.691 | 0.607 | 0.961 | 0.589 | 0.684 | 1.06 | 0.7 | 0.3 | 0.378 | 0.547 | 0.561 | 0.218 | 0.296 | 0.0754 | 0.0554 | 0.064 | 0.0685 | 0.0709
11 | A-427 | 1.01 | 1.22 | 1.1 |  | 1 |  | 0.231 | 0.221 | 0.198 |  | 0.427 | 0.198 | 0.187 | 0.944 | 0.868 | 0.997 |  | 0.961
12 | EMC-BAC-2 | 0.924 | 0.961 | 0.933 | 0.983 | 0.916 | 0.56 | 0.267 | 0.2 | 0.242 | 0.952 | 0.717 | 0.242 | 0.218 | 1.14 | 1.57 | 1.21 | 1.26 | 1.15
13 | NCI-H1563 | 0.871 | 0.874 | 0.879 | 0.913 | 0.765 | 1.09 | 1.27 | 0.969 | 0.718 | 0.598 | 0.891 | 0.871 | 0.477 |  |  |  |  | 
14 | LCLC-103H |  |  |  |  |  | 0.91 | 0.352 | 0.362 | 0.411 | 0.813 | 0.76 | 0.518 | 0.557 |  |  |  |  | 
15 | NCI-H441 |  |  |  |  |  | 0.547 | 0.339 | 0.241 | 0.341 | 0.413 | 0.378 | 0.435 | 0.358 | 0.677 | 0.498 | 0.616 | 0.611 | 0.542
16 | ChaGo-K-1 |  |  |  |  |  |  |  |  |  |  | 1.05 | 0.46 | 0.379 | 1.26 | 0.996 | 1.58 | 0.569 | 0.742
17 | NCI-H650 | 0.969 | 0.837 | 1.25 |  | 0.914 | 0.701 | 0.562 | 0.237 | 0.303 | 0.689 | 0.507 | 0.262 | 0.385 |  |  |  |  | 
18 | LK-2 | 1.38 | 1.09 | 1.19 | 1.03 | 1.03 | 0.468 | 0.529 | 0.309 | 0.165 |  |  |  |  | 0.962 | 0.883 | 0.93 | 1.07 | 0.914
19 | NCI-H1793 | 0.69 | 0.644 | 0.594 | 0.673 | 0.697 |  | 0.609 | 0.272 | 0.341 |  |  |  |  | 0.458 | 0.417 | 0.425 | 0.511 | 0.318
20 | NCI-H2170 | 0.259 | 0.241 | 0.292 | 0.273 | 0.256 |  |  |  |  |  |  |  |  | 0.499 | 0.64 | 0.643 | 0.625 | 0.58
21 | A549 | 0.95 | 1.13 | 1.09 | 0.908 | 0.759 | 0.374 | 0.636 | 0.211 | 0.0965 |  |  |  |  | 1.24 | 1.51 | 1.17 | 1.23 | 1.08
22 | NCI-H1395 | 1.15 | 1.04 | 1.24 | 1.13 | 1.24 |  | 0.804 | 0.484 | 0.29 |  |  |  |  | 1.15 | 1.15 | 1.32 | 1.14 | 1.02
